The values that follow come from patent US8309574B2, “Nuclear transfer promoter for Rac protein and method of screening the same” (Kowa Company, Ltd., priority 2004, dated 2012).

“Also recorded” adds a separate entry of the source.

Experiment [1] deals with vascular endothelial cells. To be noted: cited from earlier work.
The test system of experiment [2] is Rac protein. The experiment is described as follows: Nuclear transfer of GFP/Rac fusion protein in transformed HUVEC, observed by fluorescence microscopy. It counts as cell-based. To be noted: HUVEC expressing GFP/Rac fusion protein; pitavastatin 1 μM, 15 hours stationary culture; GFP fluorescence, nuclei stained with Hoechst. Here is the method: The present inventors measured the behavior of Rac protein in HUVEC with an HMG-CoA reductase inhibitor, particularly pitavastatin. For this measurement, a gene encoding a Rac/fluorescence protein GFP fusion protein was introduced into HUVEC to prepare a transformed cell expressing a GFP/Rac fusion protein. This transformed cell was cultured, and the state of Rac distributed in the cell in the presence or absence of pitavastatin was examined by observing the fluorescence of GFP. A gene encoding the whole area of a Rac translation region was introduced into a predetermined position of a commercial plasmid pEGFP-C1 for preparation of a fusion protein consisting of GFP and a desired protein, to construct a plasmid comprising the GFP-Rac gene. After HUVECs were put to a 6-well plate and then cultured overnight in EGM-2 medium. Using Fugene 6, the plasmid construct DNA prepared above was added in an amount of 0.8 μg/well to the cells. The cells were further cultured for 21 hours in EGM-2 medium, and then the fluorescence of GFP was observed under a fluorescence microscope. Six hours after the culture of HUVECs to which the plasmid construct DNA had been added was initiated, pitavastatin was added to the cells to a final concentration of 1 μM. And then the cells were subjected to stationary culture for 15 hours, fixed onto a prepared slide and observed under a fluorescence microscope. […]

For the compound `O=C(O)C[C@H](O)C[C@H](O)/C=C/c1c(C2CC2)nc2ccccc2c1-c1ccc(F)cc1` [pitavastatin, (3R,5S,6E)-7-[2-cyclopropyl-4-(4-fluorophenyl)-3-quinolyl]-3,5-dihydroxy-6-heptenoic acid], in experiment [1], the “expression of MCP-1” value is “suppresses”, the “expression of NO synthase” value is reported as “promotes”, the “expression of PAI-1” value is listed as “suppresses” and the “expression of PTX3” value was “suppresses”. Besides, in experiment [1], the expression of endothelin result is “suppresses”, the “expression of inflammatory cytokine IL-8” value was “suppresses” and the expression of thrombomodulin entry is reported as “promotes”. Besides, the “state of Rac distributed in the cell (transfer of GFP-Rac into the nucleus)” value in experiment [2] was “fluorescence of GFP was localized in a certain area of the cells; also recorded: GFP-Rac is transferred to a nucleus”.
